One data set has as its system E. coli ATCC 25922. As to the kind of experiment: MIC with/without bovine pulmonary surfactant. Type of data set: cell-based. Particulars: Escherichia coli. The protocol: (§1) Antibacterial susceptibility testing was measured by JMI Labs (North Liberty, Iowa, USA). […] These clinical isolates were collected from US (n=4), Mexico (n=2), and Italy (n=1). Susceptibility testing was performed by broth microdilution in accordance with the Clinical and Laboratory and Standards Institute (CLSI) guidelines M07-A10 (2015) and the standard operating procedures at JMI laboratories. Minimum inhibitory concentrations (MICS) were based on CLSI criteria (2015). There are no published breakpoints for iclaprim. E. coli, K. pneumoniae, M. catarrhalis, E. faecalis, and S. aureus were tested in cation-adjusted Mueller-Hinton broth (CA-MHB). S. pneumoniae were tested in CA-MHB supplemented with 2.5-5% lysed horse blood, and H. influenza were tested in Haemophilus test medium. Quality control and interpretation of results were performed in accordance with CLSI M100-S26 (2016) methods. QC ranges for iclaprim were those approved by CLSI and published in M100-S26 (2016). Iclaprim and comparator antibiotic MIC results were within the CLSI published ranges against E. coli ATCC 25922, E. faecalis ATCC 29212, E. faecalis ATCC 33186, H. influenzae ATCC 49247, K. pneumoniae ATCC 700603 (ESBL phenotype), S. aureus ATCC 29213, and S. pneumoniae ATCC 49619. Isolates were tested with MIC panels (ThermoFisher Scientific, Cleveland, Ohio, USA) of comparator antibiotics (daptomycin and levofloxacin).
(§2) Because bovine pulmonary surfactant can introduce cloudiness to the MIC testing media, antimicrobial growth inhibition was also evaluated using the colorimetric metabolic indicator resazurin (Camlab Ltd., Cambridge, UK). […] S. pneumoniae panels were omitted from resazurin analysis because the color change was obscured by the lysed horse blood present in the test medium. Growth inhibition was then evaluated as a visible color change from blue (no growth) to pink (robust growth) and recorded as a MIC1z value.
(§3) The MICs of iclaprim, levofloxacin, and daptomycin were determined against Gram-positive and Gram-negative isolates.
(§4) A new vial of bovine pulmonary surfactant (BPS; Survanta®; Abbott Laboratories, Columbus, Ohio) was utilized for each independent experiment. Each vial was mixed thoroughly and a 100 μL aliquot was spread on an agar plate, which was incubated overnight to confirm sterility. […] The concentration of surfactant was expressed in terms of percent volume of Survanta® suspension, which consisted of phospholipid (25 mg/mL) and surfactant proteins (<1 mg/mL) in 0.9% sodium chloride solution (Goerke, 1998). MICs of daptomycin were determined in CAMHB with the Ca^2+ content adjusted to 50 mg/L.

A further data set relates to E. faecalis ATCC 33186. As to the kind of experiment: MIC with/without bovine pulmonary surfactant. Particulars: Enterococcus faecalis, ATCC33186, 2.5% v/v BPS, read-out: MIC, Resazurin: +BPS. Type of data set: cell-based. As for the experimental part:
as §1, §2, §3, §4
A general note: The colour change of resazurin is a common sign of viable cells or microbes.

The subject of another data set is S. aureus ATCC 29213. Put plainly: MIC with/without bovine pulmonary surfactant. Type of data set: cell-based. Particulars: Staphylococcus aureus. The protocol: as §1, §2, §3, §4
Data set [1] concerns S. aureus Clinical Isolate 825189. Put plainly: MIC with/without bovine pulmonary surfactant. Particulars: Staphylococcus aureus. Type of data set: cell-based. The protocol:
as §1, §2, §3, §4

The nature of data set [2]: pH value of a 1% solution in water. Type of data set: physicochemical. An excerpt:
The molecular formulae for iclaprim and iclaprim mesylate are […] (base) and C20H26N4O6S (mesylate), and their relative molecular masses are 354.41 (base) or 450.52 (mesylate). […] One skilled in the art can readily obtain iclaprim or iclaprim mesylate, and synthesis of these compounds is described in U.S. Pat. No. 5,773,446, the entire disclosure of which is herein incorporated by reference.

The test system of a further data set is mouse. Put plainly: acute IV toxicity in the mouse (lowest lethal dose). Type of data set: in vivo.
In another data set the test system is male and female rats. Particulars: both, rat, in vivo, 4 weeks. As for the experimental part:
A repeated-dose, 4-week toxicity study was conducted in male and female rats, where single, daily IV bolus doses up to 60 mg/kg were given. […] A 28-day toxicity study was also conducted in male and female marmosets, where iclaprim mesylate was infused intravenously over a 20-minute interval.

Another data set concerns female mini-pigs. Particulars: minipig, in vivo.
The test system of another data set is E. faecalis ATCC 29212. Put plainly: MIC with/without bovine pulmonary surfactant. Type of data set: cell-based. Particulars: Enterococcus faecalis, ATCC29212, 2.5% v/v BPS, read-out: MIC, Resazurin: +BPS. As for the experimental part:
as §1, §2, §3, §4

For data set [3], the system named is M. catarrhalis Clinical Isolate 893806. As to the kind of experiment: MIC with/without bovine pulmonary surfactant. Type of data set: cell-based. Particulars: Moraxella catarrhalis, 2.5% v/v BPS, read-out: MIC, Resazurin: +BPS. The protocol: as §1, §2, §3, §4
Data set [4] deals with M. catarrhalis Clinical Isolate 893807. As to the kind of experiment: MIC with/without bovine pulmonary surfactant. Type of data set: cell-based. Particulars: Moraxella catarrhalis, 2.5% v/v BPS, read-out: MIC, Resazurin: +BPS. The protocol:
as §1, §2, §3, §4

Data set [5] deals with nosocomial pneumonia suspected or confirmed to be caused by Gram-positive pathogens. Put plainly: Phase 2 study in nosocomial pneumonia, iclaprim versus vancomycin. Type of data set: in vivo, human. An excerpt: This MIC effect of surfactant on daptomycin activity has been reported to be mediated by binding of surfactant components to specific structures present on antibiotics, such as the lipophilic side-chain of daptomycin (Silverman et al., 2005). […] Collectively, the current in vitro study and a previous Phase 2 study support that iclaprim could be a potential treatment for pneumonia, including nosocomial pneumonia caused by susceptible and multidrug resistant Gram-positive bacteria.

A further data set concerns S. aureus strain AH1252. Put plainly: neutropenic rat lung infection model. Type of data set: in vivo, Staphylococcus aureus. As for the experimental part: S. aureus strain AH1252, a thymidine knockout of the MRSA wild type AW6 strain, was utilized for this study. The bacterial strain was diluted in a 2% alginate buffer, which was added dropwise in a ratio of 1:5 into […] to form alginate beads. The alginate beads reduce the efficacy of bacterial clearance similar to that seen in the cystic fibrosis population. A 5.25×10^4 bacterial inoculum was administered to groups of 9 rats, intratracheally, with prepared alginate bacteria suspensions, under isoflurane anesthesia. […] Twelve hours after the last treatment, rats were euthanized and lungs collected for CFU determination.

Where [6] appears, read: ATCC29213, 2.5% v/v BPS, read-out: MIC, Resazurin: +BPS.
The mark [7] stands for this setting: ATCC29213, no BPS, read-out: MIC, CLSI.
Where [8] appears, read: ATCC29213, no BPS, read-out: MIC, Resazurin.
Setting [9] is: 2.5% v/v BPS, read-out: MIC, Resazurin: +BPS.
[10] abbreviates: no BPS, read-out: MIC, Resazurin.

In brackets after ≈: the same amount, converted by molar mass. Structures can show the parent of a compound that is named as a salt. Where two headings read alike, the source gives them in different places.

What is called MIC is the smallest concentration in the dilution series that meets the test's criterion for growth inhibition.

Regarding `C[C@H]1COc2c(N3CCN(C)CC3)c(F)cc3c(=O)c(C(=O)O)cn1c23` [levofloxacin], the MIC in the data set on E. coli ATCC 25922 (ATCC25922, 2.5% v/v BPS, read-out: MIC, CLSI: +BPS) amounted to 0.03 µg/mL (≈ 0.083 µM); in the data set with E. coli ATCC 25922 (ATCC25922, 2.5% v/v BPS, read-out: MIC, Resazurin: +BPS), 0.03 µg/mL (≈ 0.083 µM); in the data set with E. coli ATCC 25922 (ATCC25922, no BPS, read-out: MIC, CLSI), 0.015 µg/mL (≈ 0.0415 µM); in the data set on E. coli ATCC 25922 (ATCC25922, no BPS, read-out: MIC, Resazurin) it was 0.015 µg/mL (≈ 0.0415 µM); with E. faecalis ATCC 33186, 2 µg/mL (≈ 5.53 µM); in the data set with S. aureus ATCC 29213 (ATCC29213, 2.5% v/v BPS, read-out: MIC, CLSI: +BPS), 0.12 µg/mL (≈ 0.332 µM). Further, the MIC worked out at 0.12 µg/mL (≈ 0.332 µM) in the data set on S. aureus ATCC 29213 (setting [6]); 0.25 µg/mL (≈ 0.692 µM) in the data set with S. aureus ATCC 29213 (setting [7]); 0.25 µg/mL (≈ 0.692 µM) with S. aureus ATCC 29213 (setting [8]); 0.25 µg/mL (≈ 0.692 µM) in [1] (2.5% v/v BPS, read-out: MIC, CLSI: +BPS); 0.25 µg/mL (≈ 0.692 µM) in [1] (setting [9]); 0.25 µg/mL (≈ 0.692 µM) in [1] (no BPS, read-out: MIC, CLSI). In addition, the MIC in data set [1] (setting [10]) is 0.25 µg/mL (≈ 0.692 µM).
Regarding `COc1cc(Cc2cnc(N)nc2N)c2c(c1OC)OC(C1CC1)C=C2` (racemic) [iclaprim mesylate, 5-[(2RS)-2-cyclopropyl-7,8-dimethoxy-2Hchromen-5-ylmethyl] pyrimidine-2,4-diamine methanesulfonate], in [2], the pH value is 4.2. In addition, in the data set with mouse, the “HED of lowest lethal IV dose” value was found to be 6.1 mg/kg and the “lowest lethal IV dose” value was 75 mg/kg. Also, in the data set on male and female rats, the “HED of NOAEL” value was determined as 3.9 mg/kg/day and the “dosage with histopathological changes at the injection sites” value is reported as not below 10 mg/kg/day. In the data set on female mini-pigs, the “HED of maximum tolerated single IV dose” value worked out at 14.6 mg/kg and the “maximum tolerated single IV dose” value came to 20 mg/kg.
Regarding `CCCCCCCCCC(=O)N[C@@H](Cc1c[nH]c2ccccc12)C(=O)N[C@H](CC(N)=O)C(=O)N[C@@H](CC(=O)O)C(=O)N[C@@H]1C(=O)NCC(=O)N[C@@H](CCCN)C(=O)N[C@@H](CC(=O)O)C(=O)N[C@H](C)C(=O)N[C@@H](CC(=O)O)C(=O)NCC(=O)N[C@H](CO)C(=O)N[C@@H]([C@H](C)CC(=O)O)C(=O)N[C@@H](CC(=O)c2ccccc2N)C(=O)O[C@@H]1C` [daptomycin], the MIC is more than 16 µg/mL with E. faecalis ATCC 29212; more than 16 µg/mL in the data set with E. faecalis ATCC 33186; more than 16 µg/mL in data set [3]; more than 16 µg/mL in data set [4]; more than 16 µg/mL with S. aureus ATCC 29213 (setting [6]); 0.5 µg/mL (≈ 0.309 µM) with S. aureus ATCC 29213 (setting [7]). For the same molecule, the MIC with S. aureus ATCC 29213 (setting [8]) is 0.5 µg/mL (≈ 0.309 µM); in data set [1] (setting [9]) it was more than 16 µg/mL; in data set [1] (setting [10]), 0.25 µg/mL (≈ 0.154 µM).
As for `CN[C@H](CC(C)C)C(=O)N[C@H]1C(=O)N[C@@H](CC(N)=O)C(=O)N[C@H]2C(=O)N[C@H]3C(=O)N[C@H](C(=O)N[C@H](C(=O)O)c4cc(O)cc(O)c4-c4cc3ccc4O)[C@H](O)c3ccc(c(Cl)c3)Oc3cc2cc(c3O[C@@H]2O[C@H](CO)[C@@H](O)[C@H](O)[C@H]2O[C@H]2C[C@](C)(N)[C@H](O)[C@H](C)O2)Oc2ccc(cc2Cl)[C@H]1O` [Vancomycin, vancomycin, reference compound], the “cure rate, intent-to-treat population” value in [5] (vancomycin 1 g IV q12h, test of cure visit (12 of 23)) is 52.2%. The “death rate within 28 days of the start of treatment” value in data set [5] (vancomycin (5 of 23)) was found to be 21.7%. In the data set with S. aureus strain AH1252 (50 mg/kg SC/BID), the “72 hour lungs log10CFU/Lung (CFU/gram of lung)” value came out at 5.30, the “Change in CFUs from 2 hr. infection controls” value is reported as 2.18 log 10 CFU and the “Change in CFUs from 72 hr. infection controls” value is on record as −3.38 log 10 CFU. Moreover, the “Survival >60 hrs” value in the data set on S. aureus strain AH1252 (50 mg/kg SC/BID (100 mg/kg/day) 3 days) is recorded as 8/9. Further, the “CFU reduction from the 72 hour infection controls” value in the data set with S. aureus strain AH1252 (vancomycin 50 mg/kg SC/BID) came to 3.38 log 10 CFU.

These data come from patent publication US20190117653A1, “SYSTEMS AND METHODS FOR TREATING BACTERIAL INFECTION” (priority 2016, published 2019).
